These results are taken from ChEMBL document CHEMBL4118148, “Design, synthesis and cardiovascular evaluation of some aminoisopropanoloxy derivatives of xanthone” (Bioorg Med Chem, 2018).

Calls of active or inactive are those of the source. The rule behind the calls is not given here.

The target in series [1] is Adrenergic receptor alpha-1 (Rattus norvegicus) (UniProt P15823+P23944+P43140). The series can be described thus: Displacement of [3H][…]prazosin from adrenergic alpha1 receptor in Wistar rat cortex at 10^-5 M incubated for 30 mins by microbeta liquid scintillation counting analysis.
The target of series [2] is Beta-2 adrenergic receptor (Cavia porcellus, UniProt Q8K4Z4). The series can be described thus: Antagonist activity at adrenergic beta2 receptor in isolated guinea pig trachea assessed as inhibition of isoprenaline-induced bronchodilation incubated for 20 mins. It counts as functional. The settings on record: read-out: pA2 (converted).
A short description of series [3]: (§1) Inhibition of voltage gated calcium channel in Wistar rat aorta assessed as relaxation of KCl-precontracted aortic rings by measuring reduction in calcium entry in presence of phentolamine.
The species entered for series [4] is Rattus norvegicus. The description is as §1.
The subject of series [5] is Rattus norvegicus. The series can be described thus: In vivo inhibition of beta adrenoceptor in Wistar rat assessed as reduction in isoprenaline-induced tachycardia at 5 mg/kg, iv administered as single dose 10 mins prior to isoprenaline injection. It counts as functional, organism-based.
Series [6] relates to Rattus norvegicus. The series can be described thus: Hypotensive activity in normotensive Wistar rat assessed as diastolic blood pressure at 2.5 mg/kg, iv measured after 5 mins (reference value: 116.2 +/- 1.2 mmHg). It counts as functional.
Series [7] concerns Rattus norvegicus. In words: Hypotensive activity in normotensive Wistar rat assessed as systolic blood pressure at 5 mg/kg, iv measured after 10 mins (reference value: 119.2 to 148.6 mmHg). The class given is functional.
In series [8] the test system is Rattus norvegicus. The series can be described thus: Hypotensive activity in normotensive Wistar rat assessed as diastolic blood pressure at 5 mg/kg, iv measured after 20 mins (reference value: 86.5 to 119.4 mmHg). It counts as functional.
For series [9], the system named is Rattus norvegicus. In words: Hypotensive activity in normotensive Wistar rat assessed as diastolic blood pressure at 5 mg/kg, iv measured after 60 mins (reference value: 86.5 to 119.4 mmHg). It counts as functional.
The test system of series [10] is Rattus norvegicus. The series can be described thus: Hypotensive activity in normotensive Wistar rat assessed as systolic blood pressure at 2.5 mg/kg, iv measured after 60 mins (reference value: 148.5 +/- 2.6 mmHg). It counts as functional.
Series [11] deals with Rattus norvegicus. In words: Cardiotoxicity in Wistar rat assessed as effect on PQ interval time at 5 mg/kg, iv measured after 1 min (reference value: 52 to 57 ms). The class given is toxicity, organism-based. As to conditions: in vivo.
In series [12] the test system is Rattus norvegicus. In words: Cardiotoxicity in Wistar rat assessed as effect on QT interval time at 5 mg/kg, iv measured after 1 min (reference value: 57.7 to 61 ms). It counts as toxicity, organism-based. As to conditions: in vivo.
The test system of series [13] is Rattus norvegicus. The series can be described thus: Cardiotoxicity in Wistar rat assessed as effect on QTC interval time at 5 mg/kg, iv measured after 1 min (reference value: 136.7 to 146.2 ms). It counts as toxicity, organism-based. The settings on record: in vivo.
Series [14] relates to Rattus norvegicus. The series can be described thus: Cardiotoxicity in Wistar rat assessed as effect on QRS interval time at 5 mg/kg, iv measured after 5 mins (reference value: 16.7 to 20.7 ms). It counts as toxicity, organism-based. As to conditions: in vivo.
The test system of series [15] is Rattus norvegicus. In words: Cardiotoxicity in Wistar rat assessed as effect on heart rate at 5 mg/kg, iv measured after 15 mins (reference value: 323 to 374.5 bpm). It counts as toxicity, organism-based. The settings on record: in vivo, 0.25 h.
Series [16] relates to Rattus norvegicus. The series can be described thus: Cardiotoxicity in Wistar rat assessed as effect on PQ interval time at 5 mg/kg, iv measured after 15 mins (reference value: 52 to 57 ms). It counts as toxicity, organism-based. As to conditions: in vivo, 0.25 h.
Series [17] has as its system Rattus norvegicus. The series can be described thus: Cardiotoxicity in Wistar rat assessed as effect on QRS interval time at 5 mg/kg, iv measured after 15 mins (reference value: 16.7 to 20.7 ms). The class given is toxicity, organism-based. The settings on record: in vivo, 0.25 h.

Beta-2 adrenergic receptor, sequence (Q8K4Z4 whole entry): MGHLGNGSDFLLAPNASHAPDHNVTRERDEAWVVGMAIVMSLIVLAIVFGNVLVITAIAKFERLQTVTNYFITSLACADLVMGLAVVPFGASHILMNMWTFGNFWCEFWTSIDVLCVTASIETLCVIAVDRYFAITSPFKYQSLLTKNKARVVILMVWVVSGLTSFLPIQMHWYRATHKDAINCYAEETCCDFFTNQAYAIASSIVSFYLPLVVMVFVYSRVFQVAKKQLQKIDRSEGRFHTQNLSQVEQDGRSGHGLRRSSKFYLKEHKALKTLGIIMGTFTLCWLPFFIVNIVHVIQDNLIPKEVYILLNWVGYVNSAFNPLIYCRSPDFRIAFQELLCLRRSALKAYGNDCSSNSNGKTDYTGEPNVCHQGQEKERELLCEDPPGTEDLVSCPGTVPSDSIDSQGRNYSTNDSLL

The term IC50 denotes the concentration that gives 50% inhibition. As a reminder, the inhibition is the percentage by which the read-out fell short of the control. Turning to `COc1ccc(CCNCC(O)COc2cccc3c(=O)c4ccccc4oc23)cc1OC.Cl` (racemic), the outcome in series [1] was inactive. Further, the Kb in series [2] is 0.0414 µM. Besides, the half-maximal inhibitory concentration (IC50) in series [3] came to 10.3 µM. For the same compound, the inhibition result in the series filed under Rattus norvegicus [4] was “Dose-dependent effect”; in the series listed under Rattus norvegicus [4] (concentration not given here) it was 95%. In the series with Rattus norvegicus [5], the inhibition result is “Active”. The Activity worked out at 107 mmHg with Rattus norvegicus [6]; 135.6 mmHg with Rattus norvegicus [7]; 97.4 mmHg with Rattus norvegicus [8]; 98.6 mmHg in the series with Rattus norvegicus [9]; 133 mmHg in the series on Rattus norvegicus [10]; 265.7 bpm with Rattus norvegicus [15]. Further, the Time with Rattus norvegicus [11] worked out at 62.7 ms; in the series with Rattus norvegicus [12], 61.3 ms; in the series with Rattus norvegicus [13] it was 128.1 ms; in the series on Rattus norvegicus [14] it was 22.7 ms; with Rattus norvegicus [16], 59.3 ms; in the series with Rattus norvegicus [17], 21.3 ms.
